From patent publication US12692278B2, “Synthesis methods and compositions of low intermediate and low dichelate intermediate contrast agents” (priority 2021, dated 2026)
Values joined by “and” are separate entries in the source; they are usually repeats but may differ in a detail not shown here. Equal entries are not always repeated.

How the values were obtained:
Assay type in all cases: physicochemical
[1] = pH controlled synthesis, free Gd versus synthesis time
Method: Here, Example 1A is modified by the addition of gadolinim oxide in its entirety at first and immediately after the introduction of the DOTA, and this procedure is used to produce batch A of Gd-DOTA. Batch B is produced using the following modified procedure.
• 1. Heat reactor to 95° C. • 2. Charge water with all of gadolinium oxide • 3. Stir (stir unless otherwise indicated, nominal rate 300 rpm) until the solution is clear • 4. Add sufficient DOTA to obtain a pH of 4 • 5. When pH is >5 charge sufficient DOTA to reach pH of 4 • 6. Stir until uniformly distributed in the water, and clear • 7. If pH<4, then go to step 9 • 8. Go to step 4 • 9. Divide remaining portion of DOTA into 5 parts • 10. Add 1 part of remaining DOTA • 11. Stir until uniformly distributed in the water, and clear • 12. If DOTA remains to be added go to step 10 • 13. Continue to cook for a total of 12 hours Results

[2] = Effect of solvent (ethanol) on intermediate formation and destabilization of stable complex; conditions: mixed with 10% v-v ethanol, ethanol evaporated 12 hrs
Method: At each time step, samples were mixed with 10% v-v ethanol. The ethanol was driven from the sample by evaporation (heating under vacuum) for 12 hrs. Free Gadolinium was determined by using the spectrometric xylenol orange technique described in previous studies.
At each time step, samples were mixed with 10% v-v ethanol. The ethanol was driven from the sample by evaporation (heating under vacuum) for 12 hrs. Free Gadolinium was determined by using the improved spectrometric xylenol orange technique described in previous studies.

[3] = Free gadolinium as a function of synthesis time, spectrometric xylenol orange; conditions: for Free Gd, titrated with meglumine to pH 7.0: after 32 hrs synthesis
Method: Once the reference solution is prepared, then product runs can be indexed against this standard. • 23. An improvement over earlier methods involves in-line or batch sample monitoring of metastable intermediate presence. For example, the monitoring can be by Fourier Transform Infrared Spectroscopy, High Performance Liquid Chromatography, Ultra High Performance Liquid Chromatography, or Trans-metalation reaction. The reactant can be titrated with a strong acid (0.1 M HCl) and the free Gd3+ ion quantified by the improved xylenol orange titration according to the present disclosure. The metastable intermediate will release free Gd3+ more quickly than fully complexed Gd-DOTA. The presence of multiple metastable intermediate forms can be detected by dynamic titration over the span of an hour or more, and calculating the Gd3+ ion as a function of time. • 24. In addition, the relative kinetic stability of a Gd-DOTA complex is accessed by exposing the solution to phosphate anions at physiological pH. Even chelates with very high thermodynamic stability constants will equilibrate to form some free chelate and non-chelated gadolinium. Since gadolinium phosphate is insoluble, any non-chelated gadolinium will precipitate as insoluble gadolinium phosphate, and the free Gd3+ ion can be quantified by weighing the precipitate. Verify Complex Formation • 25. Verify absence of free gadolinium using Xylenol orange • 26. If free gadolinium detected, add X DOTA, raise temperature to 95+1-2° C., stir for 1 hr and proceed to step 16 • 27. If not, proceed to step 23 Preparation of Gadoteric Acid Meglumine Solution • 28. Add 90% of the meglumine at 40-45° C. • 29. Sir 10 minutes • 30. Measure pH—in-line probe calibrated to 25° C. (USP) • 31. If pH is >7.5, discard • 32. If pH is between 7.0 and 7.5, then go to step 29 • 33. If pH<than 7.0, add 2% of the Meglumine, go to step 24 • 34. Stir for 1 hr at 40-45° C. • 35. Check solution is clear, if yes proceed to 31, if not repeat 29 Gadoteric Acid Meglumine Solution Filtration • 36. Cool the solution to 20-25° C. • 37. Filter the solution using the carbon filter • 38. Rinse the reactor with 20-25° C. water using ¼ V • 39. Pass rinse through the filter • 40. Repeat rinse steps 33 & 34 for a total of 2 rinses • 41. Place filtrate and rinses back in reactor • 42. Stir at 25-30° C. for 10 min • 43. Measure Free DOTA by HPLC • 44. If Free DOTA is 0.01-0.06% ww proceed to 42 • 45. If Free DOTA<0.01% ww, add 0.03% ww equivalent of DOTA • 46. Stir for ½ hr and go to step 38 • 47. Measure pH—in-line probe calibrated to 25° C. (USP) • 48. If pH is between 7.0 and 7.5, then go to step 45 • 49. If pH<7.0, add meglumine. Stir 10 min. Go to step 42. • 50. Stir ½ hr. • 51. Check solution is clear, if yes proceed to 47, if not repeat 45 Verify Purity • 52. Measure Purity by HPLC • 53. If individual impurity>0.05%, go to step 32 Final API Adjustments • 54. Measure Free DOTA by HPLC • 55. If Free DOTA>0.06% ww, repeat steps 32-42 • 56. If Free DOTA is 0.01-0.06% ww proceed to 55 • 57. If Free DOTA<0.01% ww, add 0.03% ww equivalent of DOTA • 58. Stir ½ hr • 59. Go to Step 49 • 60. Measure pH • 61. If pH is 7.0-7.5, then go to step 53 • 62. If pH<7.0, add Meglumine. Stir 10 min. Go to step 55 Final API Testing • 63. Perform full API testing: Gadolinium content; Meglumine Content; Assay; Water Content; Heavy Metals Free Gadolinium as a Function of Synthesis Time Using the Method of Example 1A.
Free Gadolinium was determined by using the spectrometric xylenol orange technique described in previous studies.
Free Gadolinium as a Function of Synthesis Time Using the Method of Example 1.
Free Gadolinium was determined by using the improved spectrometric xylenol orange technique described in previous studies.

[4] = Metastable intermediates as a function of reaction time
Method: • 1. Heat reactor to 25-30° C. • 2. Charge water with DOTA • 3. Begin stirring (stir unless otherwise indicated, nominal rate 300 rpm) • 4. Charge 10% of the DOTA • 5. Stir until uniformly distributed in the water • 6. If all the DOTA is charged, then go to step 8 • 7. Go to step 4 • 8. Stir 10 min Preparation of Gadolinium: DOTA Complex • 9. Charge 25% by weight of the Gadolinium oxide • 10. Stir until uniformly distributed • 11. If all the Gadolinium oxide is charged then go to step 13 • 12. Go to step 9 • 13. Stir 10 min • 14. Raise temperature to 95+/−2° C. • 15. Stir 3 hrs. • 16. Check clarity • 17. If not clear continue for 1 hr, go to step 16 (this step took about 12 hours) • 18. If clear, continue 1 hr and then cool to 40-45° C. • 19. If precipitate forms, heat to 95+/−2° C. and stir for 1 hr, go to step 16 Verify Gd-Dota is Free of Metastable Intermediates • 20. A standard metastable-free Gd-DOTA reference solution is obtained by taking 5 ml of reactant obtained from steps 1-19 and diluting to a 0.2 mM Gd-DOTA solution. One measures the metastable intermediate content after synthesis for 5, 10, 15, 20, 25, 30, and 35 hours, or until the concentration of the metastable intermediate asymptotes as close to zero as possible. • 21. […] The output from a copper vapor laser tuned to 578.2 nm (Oxford Lasers, Didcot, United Kingdom) is directed through the reactant and the excitation spectrum obtained at 578.2 nm. Baseline is established by directing the laser through the quartz vessel filled with distilled water.
Stoichiometric ratios of gadolinium oxide were reacted with DOTA according to the procedure outlined in Example 1. Measurements were taken (N=1) to conserve volume. The final measurement was performed 5 times.

[5] = Feasibility of cation exchange (sodium polystyrene sulfonate), free Gd3+ by xylenol orange; conditions: stoichiometric sodium polystyrene sulfonate, room temperature, N = 5
Method: Feasibility of cation exchange as a method of making Gd-DOTA with low metastable intermediates
Using sodium polystyrene sulfonate, rather than the polymer described above.
Ten samples were stored at room temperature with a stoichiometric amount of sodium polystyrene sulfonate.
Samples were tested using the improved spectrometric xylenol orange method.

[6] = Feasibility of excess DTPA, free Gd3+ by xylenol orange; conditions: stoichiometric DTPA, room temperature, 24 hours
Method: The metastable intermediate concentration is determined by Example 3, and associated methods described in the present application. A Gd-DOTA synthesis containing metastable intermediates is heated to 95° C. in the presence of a stoichiometric amount of DTPA sufficient to consume all the metastable intermediates. The presence of metastable intermediates can be measured as a function of time. The reaction is continued until a desired metastable intermediate content is obtained. Depending on the amount of free DOTA thus liberated, the free DOTA can be reacted with a positively charged resin, as is known in the art. Alternatively, the free DOTA may serve as a buffer against free Gd3+ formation, as is permitted in some drug formulations. Ten samples were prepared by adding stoichiometric amounts of DTPA to counter the excess Gd3+ and stored at room temperature for 24 hours. Samples were tested using the improved spectrometric xylenol orange method.

For `O=C([O-])CN1CCN(CC(=O)[O-])CCN(CC(=O)O)CCN(CC(=O)[O-])CC1.[Gd+3]` [Batch A, Gd-DOTA], the “Free Gd” value ([1]; synthesis time 4 hrs) was 15,036 +/− 12.8 ppm, the “Free Gd” value ([1]; synthesis time 8 hrs) was 4,947 +/− 9.9 ppm and the “Free Gd” value ([1]; synthesis time 12 hrs) was 1,792 +/− 10.5 ppm.
In the case of `O=C([O-])CN1CCN(CC(=O)[O-])CCN(CC(=O)O)CCN(CC(=O)[O-])CC1.[Gd+3]` [Batch B, Gd-DOTA], the “Free Gd” value ([1]; synthesis time 4 hrs) is reported as 19,276 +/− 6.3 ppm, the “Free Gd” value ([1]; synthesis time 8 hrs) is reported as 2,793 +/− 7.1 ppm and the “Free Gd” value ([1]; synthesis time 12 hrs) is reported as 377 +/− 5.2 ppm.
For `O=C([O-])CN1CCN(CC(=O)[O-])CCN(CC(=O)O)CCN(CC(=O)[O-])CC1.[Gd+3]` [Example 1A, Gd-DOTA], the “Free Gd” value ([2]; synthesis time 4 hrs) was 71,830 ppm, the “Free Gd” value ([2]; synthesis time 8 hrs) was 7,044 ppm and the “Free Gd” value ([2]; synthesis time 12 hrs) was 2,146 ppm. The “Free Gd” value ([2]; synthesis time 16 hrs) was 957 ppm, the “Free Gd” value ([2]; synthesis time 20 hrs) was 401 ppm and the “Free Gd” value ([2]; synthesis time 24 hrs) was 147 ppm. The “Free Gd” value ([2]; synthesis time 28 hrs) was 92 ppm, the “Free Gd” value ([2]; synthesis time 32 hrs) was 56 (compare to 0.77 without solvents) ppm and the “Free Gd, titrated with meglumine to pH 7.0” value [3] was 0.77+/−0.92 ppm. For the same compound, the “Free Gd” value ([3]; synthesis time 4 hrs) was 17,467 +/− 9.4 ppm, the “Free Gd” value ([3]; synthesis time 8 hrs) was 3,448 +/− 8.9 ppm and the “Free Gd” value ([3]; synthesis time 12 hrs) was 803 ppm and 803 +/− 8.1 ppm. For the same compound, the “Free Gd” value ([3]; synthesis time 16 hrs) was 509 +/− 4.2 ppm, the “Free Gd” value ([3]; synthesis time 20 hrs) was 63.6 +/− 9.7 ppm and the “Free Gd” value ([3]; synthesis time 24 hrs) was 31.0 +/− 2.1 ppm. The “Free Gd” value ([3]; synthesis time 28 hrs) was 1.2 +/− 0.72 ppm and the “Free Gd” value ([3]; synthesis time 32 hrs) was 0.25 +/− 0.67 ppm.
In the case of `O=C([O-])CN1CCN(CC(=O)[O-])CCN(CC(=O)O)CCN(CC(=O)[O-])CC1.[Gd+3]` [Example 1B, Gd-DOTA], the “Free Gd” value ([2]; synthesis time 4 hrs) is reported as 71,830 ppm, the “Free Gd” value ([2]; synthesis time 8 hrs) is reported as 7,044 ppm and the “Free Gd” value ([2]; synthesis time 12 hrs) is reported as 2,146 ppm. For the same compound, the “Free Gd” value ([2]; synthesis time 16 hrs) was 957 ppm, the “Free Gd” value ([2]; synthesis time 20 hrs) was 401 ppm and the “Free Gd” value ([2]; synthesis time 24 hrs) was 147 ppm. The “Free Gd” value ([2]; synthesis time 28 hrs) was 92 ppm, the “Free Gd” value ([2]; synthesis time 32 hrs) was 56 (compare to 0.77 without solvents) ppm and the “Free Gd, titrated with meglumine to pH 7.0” value [3] was 0.77+/−0.92 ppm. For the same compound, the “Free Gd” value ([3]; synthesis time 4 hrs) was 17,467 +/− 9.4 ppm, the “Free Gd” value ([3]; synthesis time 8 hrs) was 3,448 +/− 8.9 ppm and the “Free Gd” value ([3]; synthesis time 12 hrs) was 803 ppm and 803 +/− 8.1 ppm. For the same compound, the “Free Gd” value ([3]; synthesis time 16 hrs) was 509 +/− 4.2 ppm, the “Free Gd” value ([3]; synthesis time 20 hrs) was 63.6 +/− 9.7 ppm and the “Free Gd” value ([3]; synthesis time 24 hrs) was 31.0 +/− 2.1 ppm. The “Free Gd” value ([3]; synthesis time 28 hrs) was 1.2 +/− 0.72 ppm and the “Free Gd” value ([3]; synthesis time 32 hrs) was 0.25 +/− 0.67 ppm.
For `O=C([O-])CN1CCN(CC(=O)[O-])CCN(CC(=O)O)CCN(CC(=O)[O-])CC1.[Gd+3]` [Example 5, Gd-DOTA], the “Metastable Intermediates” value ([4]; 3 hours of reaction) was 28,094 +/− 9.7 ppm, the “Metastable Intermediates” value ([4]; 8 hours of reaction) was 3,853 +/− 12.4 ppm and the “Metastable Intermediates” value ([4]; 24 hours of reaction) was 72 +/− 5.0 ppm. The “Metastable Intermediates” value ([4]; 32 hours of reaction) was 0.8 +/− 1.3 ppm and the “Metastable Intermediates after titration with meglumine to pH 7.0” value ([4]; after 32 hours of reaction, unit not given) was 1.2 +/− 3.8.
With Gd-DOTA [Example 6] the “Free Gd3+ after samples treated” value ([5]; 24 hrs) was 685 +/− 9.4, the “Free Gd3+ after samples treated” value ([5]; 48 hrs) was 292 +/− 15.2 and the “Free Gd3+ after samples treated” value ([5]; 96 hrs) was 8.9 +/− 8.5.
In the case of Gd-DOTA [Example 7], the “Gd3+ after samples treated with DTPA, range (upper value, down to undetectable)” value [6] is reported as no more than 27.6 ppm and the “Gd3+ after samples treated with DTPA” value ([6]; N=5) is reported as 14.8+/−11.6 ppm.
